Assay results as given in the supplement of paper PMC10307832.

Assays:
Assay in all cases: relative viability (nuclei count vs DMSO), 5 days (fraction); higher = more cells survive
[1] = system: RERF-LC-KJ
Summary of the method: (§1)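 The day after seeding in 1536-well plates, lung cancer cell lines were treated by pin tool with a single drug, or with a fixed anchor-drug dose together with five library-drug doses (not always all listed) in √10 steps. After 5 days, a combined fix-and-stain solution (final 0.05% Triton X-100, 1% formaldehyde, 1 ug/ml Hoechst) was added. Nuclei counted on 4× images gave relative viability as treated counts over vehicle counts, reported as the median of duplicate plates.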

[2] = system: LOU-NH91
Summary of the method: as §1

[3] = system: NCI-H1792
Summary of the method: as §1

[4] = system: NCI-H358
Summary of the method: as §1

[5] = system: HCC-78
Summary of the method: as §1

[6] = system: LCLC-97TM1
Summary of the method: as §1

[7] = system: LU99A
Summary of the method: as §1

[8] = system: NCI-H727
Summary of the method: as §1

[9] = system: EKVX
Summary of the method: as §1

[10] = system: BEN
Summary of the method: as §1

[11] = system: EMC-BAC-2
Summary of the method: as §1

[12] = system: NCI-H1944
Summary of the method: as §1

[13] = system: LK-2
Summary of the method: as §1

[14] = system: HCC-827
Summary of the method: as §1

[15] = system: NCI-H1734
Summary of the method: as §1

[16] = system: ChaGo-K-1
Summary of the method: as §1

[17] = system: NCI-H2126
Summary of the method: as §1

[18] = system: EPLC-272H
Summary of the method: as §1

[19] = system: NCI-H2087
Summary of the method: as §1

Cc1cnc(-c2cnc(NCCNc3ccc(C#N)cn3)nc2-c2ccc(Cl)cc2Cl)[nH]1 + NC(=O)Nc1cc(-c2cccc(F)c2)sc1C(=O)N[C@H]1CCCNC1 [AZD7762] (partner 0.2 µM)
relative viability ([1]; first compound 0.08 µM): 1.08 | relative viability ([1]; first compound 0.253 µM): 0.801 | relative viability ([1]; first compound 0.8 µM): 0.881 | relative viability ([1]; first compound 2.53 µM): 0.985 | relative viability ([2]; first compound 0.08 µM): 0.823 | relative viability ([2]; first compound 0.253 µM): 0.753 | relative viability ([2]; first compound 0.8 µM): 0.768 | relative viability ([2]; first compound 2.53 µM): 0.83 | relative viability ([3]; first compound 0.08 µM): 0.8 | relative viability ([3]; first compound 0.253 µM): 0.611 | relative viability ([3]; first compound 0.8 µM): 0.594 | relative viability ([3]; first compound 2.53 µM): 0.446 | relative viability ([4]; first compound 0.08 µM): 0.529 | relative viability ([4]; first compound 0.253 µM): 0.5 | relative viability ([4]; first compound 0.8 µM): 0.478 | relative viability ([4]; first compound 2.53 µM): 0.47 | relative viability ([5]; first compound 0.08 µM): 0.582 | relative viability ([5]; first compound 0.253 µM): 0.582 | relative viability ([5]; first compound 0.8 µM): 0.604 | relative viability ([5]; first compound 2.53 µM): 0.606 | relative viability ([6]; first compound 0.08 µM): 0.269 | relative viability ([6]; first compound 0.253 µM): 0.186 | relative viability ([6]; first compound 0.8 µM): 0.15 | relative viability ([6]; first compound 2.53 µM): 0.235 | relative viability ([7]; first compound 0.08 µM): 0.393 | relative viability ([7]; first compound 0.253 µM): 0.368 | relative viability ([7]; first compound 0.8 µM): 0.333 | relative viability ([7]; first compound 2.53 µM): 0.389 | relative viability ([8]; first compound 0.08 µM): 0.621 | relative viability ([8]; first compound 0.253 µM): 0.547 | relative viability ([8]; first compound 0.8 µM): 0.574 | relative viability ([8]; first compound 2.53 µM): 0.651 | relative viability ([9]; first compound 0.08 µM): 0.731 | relative viability ([9]; first compound 0.253 µM): 0.698 | relative viability ([9]; first compound 0.8 µM): 0.588 | relative viability ([9]; first compound 2.53 µM): 0.655 | relative viability ([10]; first compound 0.08 µM): 0.714 | relative viability ([10]; first compound 0.253 µM): 0.699 | relative viability ([10]; first compound 0.8 µM): 0.726 | relative viability ([10]; first compound 2.53 µM): 0.736 | relative viability ([11]; first compound 0.08 µM): 1.24 | relative viability ([11]; first compound 0.253 µM): 1.21 | relative viability ([11]; first compound 0.8 µM): 1.04 | relative viability ([11]; first compound 2.53 µM): 1.01 | relative viability ([12]; first compound 0.08 µM): 0.668 | relative viability ([12]; first compound 0.8 µM): 0.488 | relative viability ([12]; first compound 2.53 µM): 0.521 | relative viability ([13]; first compound 0.08 µM): 0.436 | relative viability ([13]; first compound 0.253 µM): 0.421 | relative viability ([13]; first compound 2.53 µM): 0.393 | relative viability ([14]; first compound 0.08 µM): 0.242 | relative viability ([14]; first compound 0.253 µM): 0.169 | relative viability ([14]; first compound 0.8 µM): 0.193 | relative viability ([14]; first compound 2.53 µM): 0.171 | relative viability ([15]; first compound 0.08 µM): 0.513 | relative viability ([15]; first compound 0.253 µM): 0.522 | relative viability ([15]; first compound 0.8 µM): 0.543 | relative viability ([15]; first compound 2.53 µM): 0.459 | relative viability ([16]; first compound 0.08 µM): 0.843 | relative viability ([16]; first compound 0.253 µM): 0.754 | relative viability ([16]; first compound 0.8 µM): 0.82 | relative viability ([16]; first compound 2.53 µM): 0.814 | relative viability ([17]; first compound 0.08 µM): 1.03 | relative viability ([17]; first compound 0.253 µM): 0.939 | relative viability ([17]; first compound 0.8 µM): 0.984 | relative viability ([17]; first compound 2.53 µM): 1.02 | relative viability ([18]; first compound 0.08 µM): 0.36 | relative viability ([18]; first compound 0.253 µM): 0.269 | relative viability ([18]; first compound 0.8 µM): 0.224 | relative viability ([18]; first compound 2.53 µM): 0.202 | relative viability ([19]; first compound 0.08 µM): 1.3 | relative viability ([19]; first compound 0.8 µM): 1.3 | relative viability ([19]; first compound 2.53 µM): 1.17
